Measurements reported in ChEMBL document CHEMBL1154879, “Discovery of (thienopyrimidin-2-yl)aminopyrimidines as potent, selective, and orally available pan-PI3-kinase and dual pan-PI3-kinase/mTOR inhibitors for the treatment of cancer” (J Med Chem, 2010).
Calls of active or inactive are those of the source. No cut-off for these calls is given here.

Columns and labels:
Mus musculus [1] = assay: Inhibition of PI3K/Akt/mTOR pathway signaling in PI3Kalpha mutant expressing human MCF7.1 cells xenografted nu/nu mouse assessed as inhibition of S6RP Ser235/236 phosphorylation at 6.25 mg/kg, po qd for 21 days measured 4 hrs after last administered dose on day 21 by electrochemiluminescence assay; type: functional
[2] = biological target: T1, Phosphatidylinositol 4,5-bisphosphate 3-kinase catalytic subunit delta isoform (Homo sapiens, UniProt O00329)
T1 sequence (O00329 whole entry): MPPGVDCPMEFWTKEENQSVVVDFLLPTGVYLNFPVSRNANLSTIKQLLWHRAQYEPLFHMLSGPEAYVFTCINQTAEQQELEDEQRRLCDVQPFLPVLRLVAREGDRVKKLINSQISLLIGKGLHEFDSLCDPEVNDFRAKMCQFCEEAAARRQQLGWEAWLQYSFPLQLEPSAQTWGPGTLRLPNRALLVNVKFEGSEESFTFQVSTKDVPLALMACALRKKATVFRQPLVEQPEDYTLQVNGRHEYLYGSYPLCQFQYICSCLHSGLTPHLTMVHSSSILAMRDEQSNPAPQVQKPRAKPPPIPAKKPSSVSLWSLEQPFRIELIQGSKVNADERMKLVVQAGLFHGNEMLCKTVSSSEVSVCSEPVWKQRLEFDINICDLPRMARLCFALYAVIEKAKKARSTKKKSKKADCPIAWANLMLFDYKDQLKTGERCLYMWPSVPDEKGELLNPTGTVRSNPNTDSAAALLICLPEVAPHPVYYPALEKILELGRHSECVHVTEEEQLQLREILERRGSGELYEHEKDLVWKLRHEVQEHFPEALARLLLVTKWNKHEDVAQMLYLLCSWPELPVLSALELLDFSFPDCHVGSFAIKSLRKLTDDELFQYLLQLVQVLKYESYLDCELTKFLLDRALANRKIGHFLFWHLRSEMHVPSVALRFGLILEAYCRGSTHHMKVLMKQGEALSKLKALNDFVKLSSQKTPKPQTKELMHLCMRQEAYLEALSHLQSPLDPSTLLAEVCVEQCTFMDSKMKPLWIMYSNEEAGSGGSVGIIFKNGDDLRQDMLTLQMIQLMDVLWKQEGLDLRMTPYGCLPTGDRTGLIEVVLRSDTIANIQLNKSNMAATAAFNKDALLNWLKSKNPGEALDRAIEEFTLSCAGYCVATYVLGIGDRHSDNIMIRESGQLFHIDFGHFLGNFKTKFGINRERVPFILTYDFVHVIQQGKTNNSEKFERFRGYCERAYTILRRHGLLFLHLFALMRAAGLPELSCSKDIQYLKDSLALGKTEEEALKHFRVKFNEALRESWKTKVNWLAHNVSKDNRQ

[3] = Half life in nu/nu mouse at 5 mg/kg, po; type: ADME, organism-based; design: dose 5 mg/kg, route oral; details: in vivo
[4] = Protein binding in mouse plasma; type: ADME, cell-free; details: read-out: PPB (converted)
Mus musculus [5] = assay: Inhibition of PI3K/Akt/mTOR pathway signaling in PI3Kalpha mutant expressing human MCF7.1 cells xenografted nu/nu mouse assessed as inhibition of Pras40 Thr246 phosphorylation at 12.5 mg/kg, po qd for 21 days measured 1 hr after last administered dose on day 21 by ELISA; type: functional
Mus musculus [6] = assay: Toxicity in human MCF7.1 cells expressing PI3Kalpha mutant xenografted nu/nu mouse assessed as body weight loss at 50 mg/kg, po qd for 21 days; type: organism-based; design: dose 50 mg/kg, route oral; details: in vivo, 504 h
[7] = biological target: Serine/threonine-protein kinase mTOR (Homo sapiens, UniProt P42345)
[8] = biological target: Phosphatidylinositol 4-kinase beta (Homo sapiens) (UniProt Q9UBF8); assay: Inhibition of PI4Kbeta at 1 uM
Sequence of Phosphatidylinositol 4-kinase beta (Homo sapiens) (Q9UBF8 2-816 limits assumed): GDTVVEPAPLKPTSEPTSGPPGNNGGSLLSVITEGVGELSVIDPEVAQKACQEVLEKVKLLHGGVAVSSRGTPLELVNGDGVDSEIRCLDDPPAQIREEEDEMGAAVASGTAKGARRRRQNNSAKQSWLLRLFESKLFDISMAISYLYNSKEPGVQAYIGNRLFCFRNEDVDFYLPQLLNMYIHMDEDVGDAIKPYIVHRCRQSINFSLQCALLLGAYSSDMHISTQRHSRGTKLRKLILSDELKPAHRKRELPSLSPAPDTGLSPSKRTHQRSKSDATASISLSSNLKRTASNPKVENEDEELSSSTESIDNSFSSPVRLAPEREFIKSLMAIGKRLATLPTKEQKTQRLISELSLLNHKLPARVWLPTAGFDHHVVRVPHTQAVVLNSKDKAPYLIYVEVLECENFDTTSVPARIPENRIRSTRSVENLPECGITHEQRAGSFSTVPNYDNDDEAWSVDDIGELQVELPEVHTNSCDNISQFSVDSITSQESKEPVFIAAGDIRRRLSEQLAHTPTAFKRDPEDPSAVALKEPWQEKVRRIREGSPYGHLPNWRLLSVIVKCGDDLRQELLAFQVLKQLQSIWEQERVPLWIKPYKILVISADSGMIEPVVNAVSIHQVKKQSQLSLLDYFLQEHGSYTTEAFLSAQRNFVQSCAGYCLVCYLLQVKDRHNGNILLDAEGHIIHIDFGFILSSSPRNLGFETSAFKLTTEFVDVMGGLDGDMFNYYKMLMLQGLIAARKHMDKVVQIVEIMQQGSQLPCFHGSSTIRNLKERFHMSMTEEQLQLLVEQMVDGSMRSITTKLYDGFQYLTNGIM

[9] = biological target: Phosphatidylinositol 4-phosphate 3-kinase C2 domain-containing subunit beta (Homo sapiens) (UniProt O00750); assay: Inhibition of PIK3C2beta at 1 uM
Mus musculus [10] = assay: Inhibition of PI3K/Akt/mTOR pathway signaling in PI3Kalpha mutant expressing human MCF7.1 cells xenografted nu/nu mouse assessed as inhibition of Akt Ser473 phosphorylation at 6.25 mg/kg, po qd for 21 days measured 1 hr after last administered dose on day 21 by electrochemiluminescence assay; type: functional
Mus musculus [11] = assay: Inhibition of PI3K/Akt/mTOR pathway signaling in PI3Kalpha mutant expressing human MCF7.1 cells xenografted nu/nu mouse assessed as inhibition of Akt Ser473 phosphorylation at 6.25 mg/kg, po qd for 21 days measured 4 hrs after last administered dose on day 21 by electrochemiluminescence assay; type: functional
[12] = AUC in nu/nu mouse at 5 mg/kg, po; type: ADME, organism-based; design: dose 5 mg/kg, route oral; details: plasma
[13] = biological target: Phosphatidylinositol 4,5-bisphosphate 3-kinase catalytic subunit beta isoform (Homo sapiens, UniProt P42338); assay: Inhibition of recombinant PI3Kbeta assessed as PIP3 product formation by fluorescence polarization assay
Sequence of Phosphatidylinositol 4,5-bisphosphate 3-kinase catalytic subunit beta isoform (P42338 whole entry, canonical isoform): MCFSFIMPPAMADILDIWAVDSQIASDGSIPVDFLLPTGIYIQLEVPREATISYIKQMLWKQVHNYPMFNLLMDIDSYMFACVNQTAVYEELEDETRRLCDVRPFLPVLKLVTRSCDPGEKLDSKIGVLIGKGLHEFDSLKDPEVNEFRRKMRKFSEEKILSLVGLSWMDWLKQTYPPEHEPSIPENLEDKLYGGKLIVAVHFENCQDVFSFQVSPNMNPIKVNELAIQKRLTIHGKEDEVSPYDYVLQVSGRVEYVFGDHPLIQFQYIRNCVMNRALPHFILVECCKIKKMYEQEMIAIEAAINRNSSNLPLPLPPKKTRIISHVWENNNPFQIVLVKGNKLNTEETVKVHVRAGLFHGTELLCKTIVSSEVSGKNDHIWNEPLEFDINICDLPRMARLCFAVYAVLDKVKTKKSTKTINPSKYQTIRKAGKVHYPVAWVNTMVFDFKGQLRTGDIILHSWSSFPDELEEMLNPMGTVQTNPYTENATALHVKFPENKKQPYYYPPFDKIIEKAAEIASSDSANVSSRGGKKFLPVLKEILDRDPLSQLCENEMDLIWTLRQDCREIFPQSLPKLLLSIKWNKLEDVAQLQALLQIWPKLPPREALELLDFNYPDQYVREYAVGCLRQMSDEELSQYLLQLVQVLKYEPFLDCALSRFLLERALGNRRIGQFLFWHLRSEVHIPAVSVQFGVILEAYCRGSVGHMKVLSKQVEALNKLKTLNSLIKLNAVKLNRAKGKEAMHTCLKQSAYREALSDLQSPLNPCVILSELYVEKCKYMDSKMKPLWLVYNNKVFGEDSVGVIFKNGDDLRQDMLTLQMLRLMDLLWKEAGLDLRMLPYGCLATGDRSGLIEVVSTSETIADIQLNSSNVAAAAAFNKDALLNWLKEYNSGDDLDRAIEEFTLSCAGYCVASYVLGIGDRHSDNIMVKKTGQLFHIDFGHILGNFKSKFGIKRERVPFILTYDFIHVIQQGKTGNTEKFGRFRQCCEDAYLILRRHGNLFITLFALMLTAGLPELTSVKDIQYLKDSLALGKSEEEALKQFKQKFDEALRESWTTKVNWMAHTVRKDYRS

[14] = Volume of distribution at steady state in nu/nu mouse at 1 mg/kg, iv; type: ADME, organism-based; design: dose 1 mg/kg, route intravenous; details: in vivo, read-out: Vdss
Mus musculus [15] = assay: Toxicity in human MCF7.1 cells expressing PI3Kalpha mutant xenografted nu/nu mouse assessed as body weight loss at 25 mg/kg, po qd for 21 days; type: organism-based; design: dose 25 mg/kg, route oral; details: in vivo, 504 h
[16] = Antitumor activity against human MCF7.1 cells expressing PI3Kalpha mutant xenografted in nu/nu mouse assessed as inhibition of tumor growth at 50 mg/kg, po qd for 21 days; type: functional; details: MCF7.1, 504 h, read-out: TGI
[17] = biological target: Tyrosine-protein kinase SYK (Homo sapiens, UniProt P43405); assay: Inhibition of SYK
[18] = biological target: Phosphatidylinositol 3-kinase catalytic subunit type 3 (Homo sapiens) (UniProt Q8NEB9); assay: Inhibition of VPS34 at 1 uM
Sequence of Phosphatidylinositol 3-kinase catalytic subunit type 3 (Homo sapiens) (Q8NEB9 whole entry, canonical isoform): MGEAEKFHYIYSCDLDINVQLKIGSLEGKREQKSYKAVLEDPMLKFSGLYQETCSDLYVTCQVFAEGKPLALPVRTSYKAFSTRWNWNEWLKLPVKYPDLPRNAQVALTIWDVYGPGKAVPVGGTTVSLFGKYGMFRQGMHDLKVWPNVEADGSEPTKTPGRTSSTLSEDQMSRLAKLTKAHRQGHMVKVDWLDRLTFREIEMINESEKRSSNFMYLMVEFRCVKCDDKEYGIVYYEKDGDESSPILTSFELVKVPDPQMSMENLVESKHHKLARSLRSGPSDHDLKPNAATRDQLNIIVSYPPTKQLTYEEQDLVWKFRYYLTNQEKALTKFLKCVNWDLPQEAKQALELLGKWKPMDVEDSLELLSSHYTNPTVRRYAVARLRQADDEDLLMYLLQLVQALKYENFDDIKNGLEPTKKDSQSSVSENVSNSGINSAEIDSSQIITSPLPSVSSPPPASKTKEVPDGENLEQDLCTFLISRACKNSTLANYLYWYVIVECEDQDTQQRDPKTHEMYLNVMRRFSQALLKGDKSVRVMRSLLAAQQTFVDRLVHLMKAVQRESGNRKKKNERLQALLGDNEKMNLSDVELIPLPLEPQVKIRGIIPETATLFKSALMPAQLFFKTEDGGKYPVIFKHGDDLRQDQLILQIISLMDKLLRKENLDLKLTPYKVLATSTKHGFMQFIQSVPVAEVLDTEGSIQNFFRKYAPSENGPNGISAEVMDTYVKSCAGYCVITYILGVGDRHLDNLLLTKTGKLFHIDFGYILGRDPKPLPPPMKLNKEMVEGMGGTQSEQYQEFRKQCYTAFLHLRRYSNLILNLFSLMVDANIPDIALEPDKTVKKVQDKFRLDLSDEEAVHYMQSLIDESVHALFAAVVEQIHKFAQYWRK

[19] = biological target: Phosphatidylinositol 4,5-bisphosphate 3-kinase catalytic subunit gamma isoform (Homo sapiens, UniProt P48736)
Sequence of Phosphatidylinositol 4,5-bisphosphate 3-kinase catalytic subunit gamma isoform (P48736 whole entry, canonical isoform): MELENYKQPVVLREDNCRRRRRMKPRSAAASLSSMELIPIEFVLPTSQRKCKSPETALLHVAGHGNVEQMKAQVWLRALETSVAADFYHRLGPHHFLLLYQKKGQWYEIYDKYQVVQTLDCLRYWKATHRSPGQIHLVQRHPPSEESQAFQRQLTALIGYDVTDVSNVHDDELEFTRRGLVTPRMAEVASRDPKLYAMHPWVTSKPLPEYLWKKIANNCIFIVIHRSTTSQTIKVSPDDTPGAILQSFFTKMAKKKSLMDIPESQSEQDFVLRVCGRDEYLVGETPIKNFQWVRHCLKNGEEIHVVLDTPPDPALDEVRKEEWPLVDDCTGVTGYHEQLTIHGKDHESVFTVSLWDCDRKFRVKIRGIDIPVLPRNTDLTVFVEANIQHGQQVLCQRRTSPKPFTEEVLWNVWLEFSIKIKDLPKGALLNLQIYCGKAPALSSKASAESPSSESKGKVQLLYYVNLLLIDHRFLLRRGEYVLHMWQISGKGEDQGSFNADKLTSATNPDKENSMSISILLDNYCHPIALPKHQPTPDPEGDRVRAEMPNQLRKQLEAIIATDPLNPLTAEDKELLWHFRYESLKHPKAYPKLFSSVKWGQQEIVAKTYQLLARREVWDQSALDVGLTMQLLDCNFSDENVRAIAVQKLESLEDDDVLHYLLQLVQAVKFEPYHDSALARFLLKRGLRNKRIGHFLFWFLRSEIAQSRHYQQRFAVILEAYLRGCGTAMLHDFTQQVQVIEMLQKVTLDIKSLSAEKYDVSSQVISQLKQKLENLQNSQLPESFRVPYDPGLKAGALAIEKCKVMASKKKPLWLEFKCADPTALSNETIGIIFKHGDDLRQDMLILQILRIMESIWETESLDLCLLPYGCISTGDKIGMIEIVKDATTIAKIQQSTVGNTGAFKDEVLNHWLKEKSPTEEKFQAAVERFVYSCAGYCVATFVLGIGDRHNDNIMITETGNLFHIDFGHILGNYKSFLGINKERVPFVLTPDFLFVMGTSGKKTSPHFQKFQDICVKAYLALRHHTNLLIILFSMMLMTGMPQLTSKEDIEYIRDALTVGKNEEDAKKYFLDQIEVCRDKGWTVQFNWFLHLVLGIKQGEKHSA

Mus musculus [20] = assay: Inhibition of PI3K/Akt/mTOR pathway signaling in PI3Kalpha mutant expressing human MCF7.1 cells xenografted nu/nu mouse assessed as inhibition of Akt Ser473 phosphorylation at 12.5 mg/kg, po qd for 21 days measured 4 hrs after last administered dose on day 21 by electrochemiluminescence assay; type: functional

In the case of `Cc1nc(N)ncc1-c1nc(N2CCOCC2)c2sc(C(C)(C)O)cc2n1`, the inhibition in vivo at 6.25 mg/kg (Mus musculus [1]) is reported as 51%, the IC50 [2] is reported as 0.0052 µM and the half-life [3] is reported as 4.6 h. For the same compound, the fraction unbound [4] was 0.27, the inhibition in vivo at 12.5 mg/kg (Mus musculus [5]) was 100% and the Activity (Mus musculus [6]) was “Non-toxic”. For the same compound, the IC50 [7] was 0.75 µM, the inhibition [8] was “inactive” and the inhibition [9] was 81%. It also gave an inhibition in vivo at 6.25 mg/kg (Mus musculus [10]) of 81%, an inhibition in vivo at 6.25 mg/kg (Mus musculus [11]) of 43% and an AUC [12] of 4.8 µM·h. For the same compound, the IC50 [13] was 0.025 µM, the Vd [14] was 3 L/kg and the Activity (Mus musculus [15]) was “Non-toxic”. For the same compound, the inhibition in vivo at 50 mg/kg [16] was 88%, the IC50 [17] was > 1 µM and the inhibition [18] was “inactive”. For the same compound, the IC50 [19] was 0.015 µM and the inhibition in vivo at 12.5 mg/kg (Mus musculus [20]) was 48%.
